Key:
Assay type in all cases: in vivo, rat
[1] = system: Spontaneously Hypertensive Rats (SHR); assay: Antihypertensive activity in SHR by co-administration with a diuretic drug (Test Example 1, tail cuff); details: for blood pressure, 1 week / blood pressure, 2 weeks / blood pressure, 1 day: 5 hr after administration; for blood pressure, 1 week / blood pressure, 2 weeks / blood pressure, 1 day / blood pressure, Before admin.: male SHR; for blood pressure, Before admin.: before administration (baseline); for antihypertensive action: SHR
Experimental: Antihypertensive Activity in Spontaneously Hypertensive Rats (SHR) by the Co-administration with a Diuretic Drug Method: […] The respective groups were administered orally with the compound 1(0.1 or 1 mg/kg,p.o.) or HCT (10 mg/kg, p.o.) alone or both drugs simultaneously once a day for two weeks.

[2] = system: Spontaneously Hypertensive Rats (SHR); assay: Antihypertensive activity in SHR by co-administration with a calcium antagonistic drug (Test Example 2, tail cuff); details: for blood pressure, 1 week / blood pressure, 2 weeks / blood pressure, 1 day: 5 hr after administration; for blood pressure, 1 week / blood pressure, 2 weeks / blood pressure, 1 day / blood pressure, Before admin.: male SHR; for blood pressure, Before admin.: before administration (baseline)
Experimental: Antihypertensive Activity in Spontaneously Hypertensive Rats (SHR) by the Co-administration with a Calcium Antagonistic Drug
Method: Male SHR of 20 week old were divided into six groups (five animals per group). The respective groups were administered orally with the compound 1 (0.1 or 1 mg/kg, p.o.) or MDP (3 mg/kg, p.o.) alone or with a mixture of them once a day for two weeks. On the first, 7th and 14th day at 5 hr after the administration, blood pressure of each test animal was measured by the tail cuff method under unanesthesia.

[3] = system: Spontaneously Hypertensive Rats (SHR); assay: Antihypertensive activity in SHR by co-administration with a diuretic drug (Test Example 3, compound 2, tail cuff); details: for blood pressure, 1 week / blood pressure, 2 weeks / blood pressure, 1 day: 5 hr after administration; for blood pressure, 1 week / blood pressure, 2 weeks / blood pressure, 1 day / blood pressure, Before admin.: male SHR; for blood pressure, Before admin.: before administration (baseline); for antihypertensive action: SHR
Method: Method: Male SHR of 20 week old were divided into 6 groups (five animals in one group). The respective groups were administered orally with the compound 2 (0.1 or 1 mg/kg,p.o.) or HCT (10 mg/kg, p.o.) alone or both drugs simultaneously once a day for two weeks. On the first, 7th and 14th day at 5 hr after the administration, blood pressure of each test animal was measured by the tail cuff method under unanesthesia.

CCOc1nc2cccc(C(=O)OC(C)OC(=O)OC3CCCCC3)c2n1Cc1ccc(-c2ccccc2-c2nnn[nH]2)cc1 (racemic) [Cpd. 1, (±)-1-(cyclohexyloxycarbonyloxy)ethyl 2-ethoxy-1-[[2′-(1H-tetrazol-5-yl)biphenyl-4-yl]methyl]-1H-benzimidazole-7-carboxylate]
blood pressure, 1 week ([1]; Cpd. 1 0.1 mg/kg/day p.o.): 155 ± 3 mmHg | blood pressure, 2 weeks ([1]; Cpd. 1 0.1 mg/kg/day p.o.): 162 ± 3 mmHg | blood pressure, 1 day ([1]; Cpd. 1 0.1 mg/kg/day p.o.): 161 ± 5 mmHg | blood pressure, Before admin. ([1]; Cpd. 1 0.1 mg/kg/day p.o.): 183 ± 2 mmHg | blood pressure, 1 week ([1]; Cpd. 1 1 mg/kg/day p.o.): 138 ± 2 mmHg | blood pressure, 2 weeks ([1]; Cpd. 1 1 mg/kg/day p.o.): 135 ± 3 mmHg | blood pressure, 1 day ([1]; Cpd. 1 1 mg/kg/day p.o.): 153 ± 5 mmHg | blood pressure, Before admin. ([1]; Cpd. 1 1 mg/kg/day p.o.): 186 ± 2 mmHg | antihypertensive action ([1]; compound 1 alone, 0.1 and 1 mg/kg/day): dose dependent antihypertensive action | blood pressure, 1 week ([2]; Cpd. 1 0.1 mg/kg/day p.o.): 158 ± 4 mmHg | blood pressure, 2 weeks ([2]; Cpd. 1 0.1 mg/kg/day p.o.): 160 ± 4 mmHg | blood pressure, 1 day ([2]; Cpd. 1 0.1 mg/kg/day p.o.): 157 ± 2 mmHg | blood pressure, Before admin. ([2]; Cpd. 1 0.1 mg/kg/day p.o.): 190 ± 2 mmHg | blood pressure, 1 week ([2]; Cpd. 1 1 mg/kg/day p.o.): 131 ± 13 mmHg | blood pressure, 2 weeks ([2]; Cpd. 1 1 mg/kg/day p.o.): 142 ± 4 mmHg | blood pressure, 1 day ([2]; Cpd. 1 1 mg/kg/day p.o.): 148 ± 3 mmHg | blood pressure, Before admin. ([2]; Cpd. 1 1 mg/kg/day p.o.): 196 ± 3 mmHg | antihypertensive effect ([2]; compound 1 alone, 0.1 and 1 mg/kg/day, SHR): dose dependent antihypertensive effect

CCOc1nc2cccc(C(=O)O)c2n1Cc1ccc(-c2ccccc2-c2nc(=O)o[nH]2)cc1 [Cpd. 2, 2-ethoxy-1-[[2′-(2,5-dihydro-5-oxo-1,2,4-oxadiazole-3-yl)biphenyl-4-yl]methyl]-1H-benzimidazole-7-carboxylic acid]
blood pressure, 1 week ([3]; Cpd. 2 0.1 mg/kg/day p.o.): 182 ± 6 mmHg | blood pressure, 2 weeks ([3]; Cpd. 2 0.1 mg/kg/day p.o.): 191 ± 8 mmHg | blood pressure, 1 day ([3]; Cpd. 2 0.1 mg/kg/day p.o.): 187 ± 6 mmHg | blood pressure, Before admin. ([3]; Cpd. 2 0.1 mg/kg/day p.o.): 215 ± 5 mmHg | blood pressure, 1 week ([3]; Cpd. 2 1 mg/kg/day p.o.): 161 ± 4 mmHg | blood pressure, 2 weeks ([3]; Cpd. 2 1 mg/kg/day p.o.): 165 ± 3 mmHg | blood pressure, 1 day ([3]; Cpd. 2 1 mg/kg/day p.o.): 175 ± 5 mmHg | blood pressure, Before admin. ([3]; Cpd. 2 1 mg/kg/day p.o.): 219 ± 7 mmHg | antihypertensive action ([3]; compound 2 alone, 0.1 and 1 mg/kg/day): dose dependent antihypertensive action

NS(=O)(=O)c1cc2c(cc1Cl)NCNS2(=O)=O [HCT, hydrochlorothiazide, reference compound]
blood pressure, 1 week ([1]; HCT 10 mg/kg/day p.o.): 177 ± 3 mmHg | blood pressure, 2 weeks ([1]; HCT 10 mg/kg/day p.o.): 181 ± 2 mmHg | blood pressure, 1 day ([1]; HCT 10 mg/kg/day p.o.): 178 ± 3 mmHg | blood pressure, Before admin. ([1]; HCT 10 mg/kg/day p.o.): 186 ± 3 mmHg | antihypertensive action ([1]; HCT alone, 10 mg/kg/day, p.o.): did not show antihypertensive action | blood pressure, 1 week ([3]; HCT 10 mg/kg/day p.o.): 190 ± 5 mmHg | blood pressure, 2 weeks ([3]; HCT 10 mg/kg/day p.o.): 195 ± 3 mmHg | blood pressure, 1 day ([3]; HCT 10 mg/kg/day p.o.): 188 ± 5 mmHg | blood pressure, Before admin. ([3]; HCT 10 mg/kg/day p.o.): 206 ± 5 mmHg | antihypertensive action ([3]; HCT alone, 10 mg/kg/day, p.o.): did not show antihypertensive action

COC(=O)C1=C(C)NC(C)=C(C(=O)OCCN2CCN(C(c3ccccc3)c3ccccc3)CC2)C1c1cccc([N+](=O)[O-])c1 (centres unmarked) [MDP, manidipine, reference compound]
blood pressure, 1 week ([2]; MDP 3 mg/kg/day p.o.): 132 ± 5 mmHg | blood pressure, 2 weeks ([2]; MDP 3 mg/kg/day p.o.): 136 ± 7 mmHg | blood pressure, 1 day ([2]; MDP 3 mg/kg/day p.o.): 157 ± 2 mmHg | blood pressure, Before admin. ([2]; MDP 3 mg/kg/day p.o.): 190 ± 5 mmHg
